# Data: patent US10118902B2 (Sanford Burnham Prebys Medical Discovery Institute, priority 2014, dated 2018)
# Target: neurotensin receptor 1 (NTR1) (Homo sapiens (Human), UniProt P30989)
# Test: NTR1 dose response, high-content imaging beta-arrestin-GFP assay in NTR1-U2OS cells
# Format: cell-based
# Design: scale not given here
# Details: not given
# Source text: The cell lines utilized in the high-content imaging assays, which include the NTR1-, NTR2-, and GPR35-U2OS osteosarcomas, were obtained from the laboratory of Dr. Lawrence Barak at the Duke University Medical Center. The media used in the culture of the cell lines, as well as the assays themselves, consisted of Minimum Essential Medium (15-010-CM) and L-glutamine (25-005-CL) from Cellgro/Mediatech (Manassas, Va.), fetal bovine serum (SH30396.03) from Hyclone (Logan, Utah), penicillin-streptomycin solution (PS-20) from Omega Scientific in Tarzana, Calif., G418 (ant-gn-1) from Invivogen (San Diego, Calif.), and zeocin (R250-01) from Invitrogen (Carlsbad, Calif.). Cell lines were cultured in T225 tissue culture flasks (431082) supplied by Corning (Corning, N.Y.). Additional reagents employed include Dulbecco's Phosphate-Buffered Saline (DPBS) (21-031CV) from Cellgro/Mediatech, Trypsin-EDTA 0.05% (25300) from Invitrogen, paraformaldehyde (30528954) from Acros Organics (Geel, Belgium), Hoechst 33342 (H3570) from Invitrogen. The high-content assays were run in 1536-well plates (29326) supplied by Aurora Biotechnology (Poway, Calif.) and utilized aluminum plate seals (T592100) from E&K Scientific (Santa Clara, Calif.). […]
# The high-content imaging based NTR1 primary screen in 1536-well format was utilized to assay the MLSMR library of chemical entities in the following manner. On day one, 4 uL of a cell suspension containing 350,000 NTR1-U2OS cells per mL is added to each well of a 1536-well assay plate. Cells are plated in MEM medium containing 2.5% Fetal Bovine Serum, 1% Penicillin/Streptomycin solution, 1% L-Glutamine, 400 ug/mL G418, and 200 ug/mL Zeocin. The assay plates are then incubated overnight at 37° C., under 5% CO2. Following the overnight incubation, a volume of 60 nL of the compounds at 2 mM in DMSO (final 20 μM, 1% DMSO) was transferred to columns 5-48 of the assay plates using a LabCyte Echo Liquid Handler. Next, 60 nL of DMSO were dispensed to columns 1-4, which served as the positive and neutral control wells. […] The assay plates were centrifuged on an Eppendorf 5810 centrifuge at 1000 rpm for 1 min to ensure even liquid levels in the wells of the assay plates. The assay plates were then returned to the incubator for 1 hour. Following the hour-long incubation at 37° C., the cells in each well were fixed with 4 uL of 6% paraformaldehyde added with a Multidrop Combi. The assay plates were centrifuged as before and incubated at room temperature for 1 hour. On the Kalypsys, plates were then aspirated down to 2.5 uL per well and washed twice with 11 uL per well of DPBS, followed by a final aspiration to 2.5 uL per well. On the Combi dispenser, 5 uL of 5 ug/mL Hoechst 33342 diluted in DPBS was added to each well of assay plates. The plates were again centrifuged as previously described, sealed, and incubated for at least 1 hour prior to being loaded on a PerkinElmer Opera QEHS.
# Image acquisition was performed with a 45 plate capacity loader/stacker and the following settings: 40×0.6 NA air objective, acquisition camera set to 2-by-2 binning for an image size of 688 by 512 pixels, beta-arrestin-GFP acquired using 488 nm laser excitation and 540/75 nm emission filters, DAPI (nuclei) using 365 nm Xenon lamp excitation and 450/50 nm emission filters, 3 fields per well. Image analysis was performed using the Acapella Spot Detection Algorithm. For analysis settings and the metrics employed in the data analyses, please refer to supplemental information.
# Compounds that were successfully confirmed in quadruplicate at 20 uM were then run in dose response in the primary assay. As with the single concentration hit confirmation, the assay was performed in an identical manner as the primary screen with the following modifications. […]
# Sequence of neurotensin receptor 1 (NTR1) (P30989 whole entry, species assumed): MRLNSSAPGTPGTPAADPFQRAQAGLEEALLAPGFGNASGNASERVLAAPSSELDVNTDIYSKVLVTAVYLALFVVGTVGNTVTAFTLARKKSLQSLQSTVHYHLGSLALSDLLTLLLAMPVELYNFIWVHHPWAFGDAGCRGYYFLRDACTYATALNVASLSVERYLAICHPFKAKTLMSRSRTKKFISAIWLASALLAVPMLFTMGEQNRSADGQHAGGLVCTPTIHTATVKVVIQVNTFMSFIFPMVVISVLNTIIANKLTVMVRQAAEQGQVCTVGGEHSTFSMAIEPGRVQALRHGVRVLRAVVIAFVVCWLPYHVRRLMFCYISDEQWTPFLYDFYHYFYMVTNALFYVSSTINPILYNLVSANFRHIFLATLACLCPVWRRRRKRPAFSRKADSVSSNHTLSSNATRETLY
row,EC50,SMILES
1,C or D,"COc1ccccc1C1CCN(c2nc(C3CCC3)nc3ccc(N(C)C)cc23)CC1 [Example 42, {2-cyclobutyl-4-[4-(2-methoxy-phenyl)-piperidin-1-yl]-quinazolin-6-yl}-dimethyl-amine]"

# Same assay, conditions: read-out: EC50
row,EC50 [µM],SMILES
1,0.5 to 2,"COc1ccccc1C1CCN(c2nc(C3CC3)nc3ccc(N4CCC(OC)C4)cc23)CC1 (stereo not drawn) [Example 80, 2-cyclopropyl-4-[4-(2-methoxy-phenyl)-piperidin-1-yl]-6-(3-methoxy-pyrrolidin-1-yl)-quinazoline]"
2,> 10,"CCCN(C)c1cc2c(N3CCC(c4ccccc4OC)CC3)nc(C3CC3)nc2cc1Cl [Example 104, {7-chloro-2-cyclopropyl-4-[4-(2-methoxy-phenyl)-piperidin-1-yl]-quinazolin-6-yl}-methyl-propyl-amine]"
3,> 10,"COc1ccccc1C1CCN(c2nc(C3(N(C)C)CC3)nc3ccc(N(C)C)cc23)CC1 [Example 19, {2-(1-dimethylamino-cyclopropyl)-4-[4-(2-methoxy-phenyl)-piperidin-1-yl]-quinazolin-6-yl}-dimethyl-amine]"
4,> 10,"CCCN(C)c1ccc2nc(N(C)C)nc(N3CCC(c4ccccc4OC)CC3)c2c1 [Example 95, 4-(4-(2-methoxyphenyl)piperidin-1-yl)-N2,N2,N6-trimethyl-N6-propylquinazoline-2,6-diamine]"
5,> 10,"COc1cncnc1C1CCN(c2nc(C3(F)CC3)nc3c(F)cc(N(C)CCO)cc23)CC1 [Example 217, 2-({8-Fluoro-2-(1-fluoro-cyclopropyl)-4-[4-(5-methoxy-pyrimidin-4-yl)-piperidin-1-yl]-quinazolin-6-yl}-methyl-amino)-ethanol]"
6,2 to 10,"COc1cc(F)ccc1C1CCN(c2nc(C3CC3)nc3cc(C)c(N(C)CCO)cc23)CC1 [Example 114, 2-({2-cyclopropyl-4-[4-(4-fluoro-2-methoxy-phenyl)-piperidin-1-yl]-7-methyl-quinazolin-6-yl}-methyl-amino)-ethanol]"
7,0.5 to 2,"COc1ccccc1C1CCN(c2nc(C3CC3)nc3ccc(N4CC[C@H](O)C4)cc23)CC1 [Example 173, (S)-1-(2-cyclopropyl-4-(4-(2-methoxyphenyl)piperidin-1-yl)quinazolin-6-yl)pyrrolidin-3-ol]"
8,> 10,"CN(C)c1ccccc1C1CCN(c2nc(C3(C)CCC3)nc3ccc(N(C)CCN4CCOCC4)cc23)CC1 [Example 67, [4-[4-(2-dimethylamino-phenyl)-piperidin-1-yl]-2-(1-methyl-cyclobutyl)-quinazolin-6-yl]-methyl-(2-morpholin-4-yl-ethyl)-amine]"
9,2 to 10,COc1ccccc1C1CCN(c2nc(C3(C(F)(F)F)CC3)nc3ccc(N(C)CCN4CCOCC4)cc23)CC1 [Example 48]
10,0.5 to 2,"COc1ccccc1C1CCN(c2nc(C3CC3)nc3cc(Cl)c(N(C)CCO)cc23)CC1 [Example 107, 2-({7-chloro-2-cyclopropyl-4-[4-(2-methoxy-phenyl)-piperidin-1-yl]-quinazolin-6-yl}-methyl-amino)-ethanol]"
11,< 0.5,"COc1ccccc1C1CCN(c2nc(C3(C)CC3)nc3ccc(N(C)CCO)cc23)CC1 [Example 22, 2-{[4-[4-(2-methoxy-phenyl)-piperidin-1-yl]-2-(1-methyl-cyclopropyl)-quinazolin-6-yl]-methyl-amino}-ethanol]"
12,2 to 10,"CN(C)c1ccccc1C1CCN(c2nc(C3CC3)nc3cc(Cl)c(N(C)CCO)cc23)CC1 [Example 118, 2-({7-chloro-2-cyclopropyl-4-[4-(2-dimethylamino-phenyl)-piperidin-1-yl]-quinazolin-6-yl}-methyl-amino)-ethanol]"
13,0.5 to 2,"COc1ccccc1C1CCN(c2nc(C3CC3)nc3ccc(N(C)CCO)c(F)c23)CC1 [Example 132, 2-((2-cyclopropyl-5-fluoro-4-(4-(2-methoxyphenyl)piperidin-1-yl)quinazolin-6-yl)(methyl)amino)ethanol]"
14,2 to 10,"CCCN(C)c1cc2c(N3CCC(c4ccccc4OC)CC3)nc(C3CC3)nc2cc1F [Example 105, {2-cyclopropyl-7-fluoro-4-[4-(2-methoxy-phenyl)-piperidin-1-yl]-quinazolin-6-yl}-methyl-propyl-amine]"
15,2 to 10,"CN(C)c1ccccc1C1CCN(c2nc(C3CC3)nc3ccc(N(C)CCO)cc23)CC1 [Example 10, 2-({2-cyclopropyl-4-[4-(2-dimethylamino-phenyl)-piperidin-1-yl]-quinazolin-6-yl}-methyl-amino)-ethanol]"
16,0.5 to 2,"COc1ccccc1C1CCN(c2nc(C3(F)CCC3)nc3c(Cl)cc(N(C)CCO)cc23)CC1 [Example 181, 2-((8-chloro-2-(1-fluorocyclobutyl)-4-(4-(2-methoxyphenyl)piperidin-1-yl)quinazolin-6-yl)(methyl)amino)ethanol]"
17,> 10,"COc1ccccc1C1CCN(c2nc(C3(C(F)(F)F)CCC3)nc3ccc(N(C)CCN4CCOCC4)cc23)CC1 [Example 64, [4-[4-(2-methoxy-phenyl)-piperidin-1-yl]-2-(1-trifluoromethyl-cyclobutyl)-quinazolin-6-yl]-methyl-(2-morpholin-4-yl-ethyl)-amine]"
18,< 0.5,"COc1ccccc1C1CCN(c2nc(C3CC3)nc3ccc(N4CC[C@@H](O)C4)cc23)CC1 [Example 81, (R)-1-{2-cyclopropyl-4-[4-(2-methoxy-phenyl)-piperidin-1-yl]-quinazolin-6-yl}-pyrrolidin-3-ol]"
19,2 to 10,"COc1ccccc1C1CCN(c2nc(C3(F)CCC3)nc3cnc(N(C)CCO)cc23)CC1 [Example 198, 2-({2-(1-Fluoro-cyclobutyl)-4-[4-(2-methoxy-phenyl)-piperidin-1-yl]-pyrido[3,4-d]pyrimidin-6-yl}-methyl-amino)-ethanol]"
20,2 to 10,COc1ccccc1C1CCN(c2nc(C3(F)CCC3)nc3c(Cl)cc(N4CC[C@H](O)C4)cc23)CC1 [Example 183]
21,2 to 10,"CN(C)CCN(C)c1ccc2nc(C3CC3)nc(N3CCC(c4ccccc4N(C)C)CC3)c2c1 [Example 14, N-{2-cyclopropyl-4-[4-(2-dimethylamino-phenyl)-piperidin-1-yl]-quinazolin-6-yl}-N,N′,N′-trimethyl-ethane-1,2-diamine]"
22,< 0.5,"COc1ccccc1C1CCN(c2nc(C3CC3)nc3c(Cl)cc(N(C)CCO)cc23)CC1 [Example 130, 2-({8-chloro-2-cyclopropyl-4-[4-(2-methoxy-phenyl)-piperidin-1-yl]-quinazolin-6-yl}-methyl-amino)-ethanol]"
23,> 10,"CCCN(C)c1cc2c(N3CCC(c4ccccc4N4CCC4)CC3)nc(C3CC3)nc2cc1F [Example 106, {4-[4-(2-azetidin-1-yl-phenyl)-piperidin-1-yl]-2-cyclopropyl-7-fluoro-quinazolin-6-yl}-methyl-propyl-amine]"
24,0.5 to 2,"COc1ccccc1C1CCN(c2nc(C3(F)CC3)nc3c(Cl)cc(N4CC[C@@H](O)C4)cc23)CC1 (stereo in doubt) [Example 202, 1-{8-Chloro-2-(1-fluoro-cyclopropyl)-4-[4-(2-methoxy-phenyl)-piperidin-1-yl]-quinazolin-6-yl}-pyrrolidin-3-ol]"
25,> 10,"CN(C)CCN(C)c1ccc2nc(C3(C)CC3)nc(N3CCC(c4ccccc4N(C)C)CC3)c2c1 [Example 28, N-[4-[4-(2-dimethylamino-phenyl)-piperidin-1-yl]-2-(1-methyl-cyclopropyl)-quinazolin-6-yl]-N,N′,N′-trimethyl-ethane-1,2-diamine]"
26,2 to 10,"COc1ccccc1C1CCN(c2nc(C#CC3CC3)nc3ccc(N(C)CCO)cc23)CC1 [Example 136, 2-((2-(cyclopropylethynyl)-4-(4-(2-methoxyphenyl)piperidin-1-yl)quinazolin-6-yl)(methyl)amino)ethanol]"
